Source: patent US6737383B1, “Herbicidal oxadiazolidines” (priority 1999, dated 2004)

Columns and labels:
surinam grass = experiment: Test B pre/postemergence surinam grass; format: in vivo, Brachiaria decumbens
Summary of the method: (§1)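 Test chemicals in a non-phytotoxic solvent mixture with surfactant were sprayed preemergence onto planted seeds and postemergence onto plants 2 to 18 cm tall (1- to 4-leaf stage). After twelve to sixteen days in a greenhouse, injury was visually rated against untreated controls from 0 (no effect) to 10 (complete control).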

crabgrass = experiment: Test B pre/postemergence crabgrass; format: in vivo, Digitaria sanguinalis
Summary of the method: as §1

purple nutsedge = experiment: Test B pre/postemergence purple nutsedge; format: in vivo, Cyperus rotundus
Summary of the method: as §1

blackgrass = experiment: Test B pre/postemergence blackgrass; format: in vivo, Alopecurus myosuroides
Summary of the method: as §1

giant foxtail = experiment: Test B pre/postemergence giant foxtail; format: in vivo, Setaria faberii
Summary of the method: as §1

wheat = experiment: Test B pre/postemergence wheat; format: in vivo, Triticum aestivum
Summary of the method: as §1

velvetleaf = experiment: Test B pre/postemergence velvetleaf; format: in vivo, Abutilon theophrasti
Summary of the method: as §1

rape = experiment: Test B pre/postemergence rape; format: in vivo, Brassica napus
Summary of the method: as §1

sugar beet = experiment: Test B pre/postemergence sugar beet; format: in vivo, Beta vulgaris
Summary of the method: as §1

pigweed = experiment: Test B pre/postemergence pigweed; format: in vivo, Amaranthus retroflexus
Summary of the method: as §1

morningglory = experiment: Test B pre/postemergence morningglory; format: in vivo, Ipomoea hederacea
Summary of the method: as §1

cocklebur = experiment: Test B pre/postemergence cocklebur; format: in vivo, Xanthium strumarium
Summary of the method: as §1

corn = experiment: Test B pre/postemergence corn; format: in vivo, Zea mays
Summary of the method: as §1

soybean = experiment: Test B pre/postemergence soybean; format: in vivo, Glycine max
Summary of the method: as §1

wild oat = experiment: Test B pre/postemergence wild oat; format: in vivo, Avena fatua
Summary of the method: as §1

bedstraw = experiment: Test B pre/postemergence bedstraw; format: in vivo, Galium aparine
Summary of the method: as §1

[1] = Postemergence, Rate 62 g/ha, scale 0 to 10, 0 is no effect, 10 is complete control
[2] = Postemergence, Rate 125 g/ha, scale of 0 to 10 where 0 is no effect and 10 is complete control
[3] = Postemergence, Rate 250 g/ha, scale of 0 to 10, 0 is no effect, 10 is complete control
[4] = Preemergence, Rate 62 g/ha, scale of 0 to 10 where 0 is no effect and 10 is complete control
[5] = Preemergence, Rate 125 g/ha, scale of 0 to 10 where 0 is no effect and 10 is complete control
[6] = Preemergence, Rate 250 g/ha, scale 0 to 10 (0 no effect, 10 complete control)
[7] = Preemergence, Rate 500 g/ha, scale of 0 to 10 where 0 is no effect and 10 is complete control
[8] = Rate 500 g/ha, Postemergence, scale 0 to 10, 0 is no effect, 10 is complete control
[9] = Preemergence, Rate 250 g/ha, scale 0 (no effect) to 10 (complete control)
[10] = Rate 500 g/ha, Preemergence, scale 0 to 10 (0 no effect, 10 complete control)

CC(C)N(C(=O)n1oc(=O)n(CCF)c1=O)c1ccc(F)cc1F [Compound 670]
Plant response rating, B. signalgrass (surinam grass; [1]): 3
Plant response rating, B. signalgrass (surinam grass; [2]): 7
B. signalgrass plant response rating (surinam grass; [3]): 7
B. signalgrass plant response rating (surinam grass; [4]): 8
Plant response rating, B. signalgrass (surinam grass; [5]): 9
Plant response rating, B. signalgrass (surinam grass; [6]): 10
Plant response rating, B. signalgrass (surinam grass; [7]): 10
B. signalgrass plant response rating (surinam grass; [8]): 8
Plant response rating, Crabgrass (crabgrass; [1]): 9
Crabgrass plant response rating (crabgrass; [2]): 8
Crabgrass plant response rating (crabgrass; [3]): 8
Crabgrass plant response rating (crabgrass; [4]): 10
Plant response rating, Crabgrass (crabgrass; [5]): 10
Plant response rating, Crabgrass (crabgrass; [6]): 10
Plant response rating, Crabgrass (crabgrass; [7]): 10
Crabgrass plant response rating (crabgrass; [8]): 8
Plant response rating, Nutsedge (purple nutsedge; [1]): 0
Nutsedge plant response rating (purple nutsedge; [2]): 4
Plant response rating, Nutsedge (purple nutsedge; [5]): 5
Plant response rating, Nutsedge (purple nutsedge; [6]): 8
Plant response rating, Nutsedge (purple nutsedge; [7]): 10
Nutsedge plant response rating (purple nutsedge; [8]): 5
Plant response rating, Blackgrass (blackgrass; [1]): 2
Blackgrass plant response rating (blackgrass; [2]): 4
Blackgrass plant response rating (blackgrass; [3]): 5
Blackgrass plant response rating (blackgrass; [4]): 8
Plant response rating, Blackgrass (blackgrass; [5]): 9
Plant response rating, Blackgrass (blackgrass; [6]): 10
Plant response rating, Blackgrass (blackgrass; [7]): 10
Blackgrass plant response rating (blackgrass; [8]): 5
Plant response rating, Giant foxtail (giant foxtail; [1]): 9
Giant foxtail plant response rating (giant foxtail; [2]): 9
Giant foxtail plant response rating (giant foxtail; [3]): 9
Giant foxtail plant response rating (giant foxtail; [4]): 10
Plant response rating, Giant foxtail (giant foxtail; [5]): 10
Plant response rating, Giant foxtail (giant foxtail; [6]): 10
Plant response rating, Giant foxtail (giant foxtail; [7]): 10
Giant foxtail plant response rating (giant foxtail; [8]): 9
Plant response rating, Wheat (wheat; [1]): 0
Wheat plant response rating (wheat; [2]): 0
Wheat plant response rating (wheat; [4]): 7
Plant response rating, Wheat (wheat; [5]): 9
Plant response rating, Wheat (wheat; [6]): 9
Plant response rating, Wheat (wheat; [7]): 9
Wheat plant response rating (wheat; [8]): 4
Plant response rating, Velvetleaf (velvetleaf; [1]): 5
Velvetleaf plant response rating (velvetleaf; [2]): 5
Velvetleaf plant response rating (velvetleaf; [4]): 6
Plant response rating, Velvetleaf (velvetleaf; [5]): 8
Plant response rating, Velvetleaf (velvetleaf; [6]): 8
Plant response rating, Velvetleaf (velvetleaf; [7]): 8
Velvetleaf plant response rating (velvetleaf; [8]): 4
Plant response rating, Rape (rape; [1]): 0
Rape plant response rating (rape; [2]): 2
Rape plant response rating (rape; [4]): 8
Plant response rating, Rape (rape; [5]): 9
Plant response rating, Rape (rape; [6]): 10
Plant response rating, Rape (rape; [7]): 10
Rape plant response rating (rape; [8]): 4
Plant response rating, Sugarbeets (sugar beet; [1]): 0
Sugarbeets plant response rating (sugar beet; [2]): 2
Sugarbeets plant response rating (sugar beet; [4]): 8
Plant response rating, Sugarbeets (sugar beet; [5]): 9
Plant response rating, Sugarbeets (sugar beet; [6]): 9
Plant response rating, Sugarbeets (sugar beet; [7]): 9
Sugarbeets plant response rating (sugar beet; [8]): 2
Plant response rating, Redroot pigweed (pigweed; [1]): 7
Redroot pigweed plant response rating (pigweed; [2]): 7
Redroot pigweed plant response rating (pigweed; [4]): 9
Plant response rating, Redroot pigweed (pigweed; [5]): 10
Plant response rating, Redroot pigweed (pigweed; [6]): 10
Plant response rating, Redroot pigweed (pigweed; [7]): 10
Redroot pigweed plant response rating (pigweed; [8]): 9
Plant response rating, Morningglory (morningglory; [1]): 3
Morningglory plant response rating (morningglory; [2]): 3
Morningglory plant response rating (morningglory; [3]): 6
Morningglory plant response rating (morningglory; [4]): 2
Plant response rating, Morningglory (morningglory; [5]): 7
Plant response rating, Morningglory (morningglory; [6]): 8
Plant response rating, Morningglory (morningglory; [7]): 8
Morningglory plant response rating (morningglory; [8]): 4
Plant response rating, Cocklebur (cocklebur; [1]): 2
Cocklebur plant response rating (cocklebur; [2]): 2
Cocklebur plant response rating (cocklebur; [3]): 2
Cocklebur plant response rating (cocklebur; [4]): 0
Plant response rating, Cocklebur (cocklebur; [5]): 0
Plant response rating, Cocklebur (cocklebur; [7]): 2
Cocklebur plant response rating (cocklebur; [8]): 3
Plant response rating, Corn (corn; [1]): 3
Corn plant response rating (corn; [2]): 4
Corn plant response rating (corn; [3]): 5
Corn plant response rating (corn; [4]): 2
Plant response rating, Corn (corn; [5]): 4
Plant response rating, Corn (corn; [6]): 8
Plant response rating, Corn (corn; [7]): 9
Corn plant response rating (corn; [8]): 6
Plant response rating, Soybean (soybean; [1]): 3
Soybean plant response rating (soybean; [2]): 2
Soybean plant response rating (soybean; [4]): 0
Plant response rating, Soybean (soybean; [5]): 3
Plant response rating, Soybean (soybean; [6]): 8
Plant response rating, Soybean (soybean; [7]): 9
Soybean plant response rating (soybean; [8]): 5
Plant response rating, Wild oats (wild oat; [1]): 0
Wild oats plant response rating (wild oat; [2]): 0
Wild oats plant response rating (wild oat; [4]): 7
Plant response rating, Wild oats (wild oat; [5]): 9
Plant response rating, Wild oats (wild oat; [6]): 9
Plant response rating, Wild oats (wild oat; [7]): 9
Wild oats plant response rating (wild oat; [8]): 3
Bedstraw plant response rating (bedstraw; [4]): 8
Plant response rating, Bedstraw (bedstraw; [5]): 8
Plant response rating, Bedstraw (bedstraw; [6]): 9
Plant response rating, Bedstraw (bedstraw; [7]): 9
Bedstraw plant response rating (bedstraw; [8]): 8

CC(C)N(C(=O)n1oc(=O)n(CCC(=O)N(C)C)c1=O)c1ccc(F)cc1F [Compound 687]
B. signalgrass plant response rating (surinam grass; [4]): 6
Plant response rating, B. signalgrass (surinam grass; [5]): 9
Plant response rating, B. signalgrass (surinam grass; [6]): 10
Plant response rating, B. signalgrass (surinam grass; [7]): 10
Crabgrass plant response rating (crabgrass; [4]): 4
Plant response rating, Crabgrass (crabgrass; [6]): 4
Plant response rating, Nutsedge (purple nutsedge; [5]): 0
Blackgrass plant response rating (blackgrass; [4]): 8
Plant response rating, Blackgrass (blackgrass; [5]): 9
Plant response rating, Blackgrass (blackgrass; [6]): 9
Plant response rating, Blackgrass (blackgrass; [7]): 10
Giant foxtail plant response rating (giant foxtail; [4]): 6
Plant response rating, Giant foxtail (giant foxtail; [5]): 6
Wheat plant response rating (wheat; [4]): 0
Plant response rating, Wheat (wheat; [5]): 6
Velvetleaf plant response rating (velvetleaf; [4]): 2
Plant response rating, Velvetleaf (velvetleaf; [5]): 5
Rape plant response rating (rape; [4]): 0
Plant response rating, Rape (rape; [5]): 5
Sugarbeets plant response rating (sugar beet; [4]): 4
Plant response rating, Sugarbeets (sugar beet; [5]): 5
Redroot pigweed plant response rating (pigweed; [4]): 8
Plant response rating, Redroot pigweed (pigweed; [5]): 9
Morningglory plant response rating (morningglory; [4]): 2
Plant response rating, Morningglory (morningglory; [5]): 3
Cocklebur plant response rating (cocklebur; [4]): 0
Plant response rating, Cocklebur (cocklebur; [5]): 0
Plant response rating, Cocklebur (cocklebur; [6]): 0
Plant response rating, Cocklebur (cocklebur; [7]): 0
Corn plant response rating (corn; [4]): 0
Plant response rating, Corn (corn; [5]): 0
Plant response rating, Corn (corn; [6]): 0
Soybean plant response rating (soybean; [4]): 0
Plant response rating, Soybean (soybean; [5]): 0
Wild oats plant response rating (wild oat; [4]): 7
Plant response rating, Wild oats (wild oat; [5]): 9
Bedstraw plant response rating (bedstraw; [4]): 0
Plant response rating, Bedstraw (bedstraw; [5]): 0
Plant response rating, Bedstraw (bedstraw; [7]): 0

C=C(Cn1c(=O)on(C(=O)N(c2ccc(F)cc2)C(C)C)c1=O)C(=O)OC [Compound 732]
B. signalgrass plant response rating (surinam grass; [4]): 0
Plant response rating, B. signalgrass (surinam grass; [5]): 0
B. signalgrass plant response rating (surinam grass; [9]): 0
B. signalgrass plant response rating (surinam grass; [10]): 0
Crabgrass plant response rating (crabgrass; [4]): 0
Plant response rating, Crabgrass (crabgrass; [5]): 0
Crabgrass plant response rating (crabgrass; [9]): 0
Crabgrass plant response rating (crabgrass; [10]): 0
Nutsedge plant response rating (purple nutsedge; [4]): 0
Nutsedge plant response rating (purple nutsedge; [9]): 0
Nutsedge plant response rating (purple nutsedge; [10]): 0
Blackgrass plant response rating (blackgrass; [4]): 0
Plant response rating, Blackgrass (blackgrass; [5]): 0
Blackgrass plant response rating (blackgrass; [9]): 0
Blackgrass plant response rating (blackgrass; [10]): 0
Giant foxtail plant response rating (giant foxtail; [4]): 0
Plant response rating, Giant foxtail (giant foxtail; [5]): 0
Giant foxtail plant response rating (giant foxtail; [9]): 0
Giant foxtail plant response rating (giant foxtail; [10]): 0
Wheat plant response rating (wheat; [4]): 0
Plant response rating, Wheat (wheat; [5]): 0
Wheat plant response rating (wheat; [9]): 0
Wheat plant response rating (wheat; [10]): 0
Velvetleaf plant response rating (velvetleaf; [4]): 0
Plant response rating, Velvetleaf (velvetleaf; [5]): 0
Velvetleaf plant response rating (velvetleaf; [9]): 0
Velvetleaf plant response rating (velvetleaf; [10]): 0
Rape plant response rating (rape; [4]): 0
Plant response rating, Rape (rape; [5]): 0
Rape plant response rating (rape; [9]): 0
Rape plant response rating (rape; [10]): 0
Sugarbeets plant response rating (sugar beet; [4]): 0
Plant response rating, Sugarbeets (sugar beet; [5]): 0
Sugarbeets plant response rating (sugar beet; [9]): 0
Sugarbeets plant response rating (sugar beet; [10]): 0
Redroot pigweed plant response rating (pigweed; [4]): 0
Plant response rating, Redroot pigweed (pigweed; [5]): 0
Redroot pigweed plant response rating (pigweed; [9]): 0
Redroot pigweed plant response rating (pigweed; [10]): 0
Morningglory plant response rating (morningglory; [4]): 0
Plant response rating, Morningglory (morningglory; [5]): 0
Morningglory plant response rating (morningglory; [9]): 0
Morningglory plant response rating (morningglory; [10]): 0
Cocklebur plant response rating (cocklebur; [4]): 0
Plant response rating, Cocklebur (cocklebur; [5]): 0
Cocklebur plant response rating (cocklebur; [9]): 0
Cocklebur plant response rating (cocklebur; [10]): 0
Corn plant response rating (corn; [4]): 0
Plant response rating, Corn (corn; [5]): 0
Corn plant response rating (corn; [9]): 0
Corn plant response rating (corn; [10]): 0
Soybean plant response rating (soybean; [4]): 0
Plant response rating, Soybean (soybean; [5]): 0
Soybean plant response rating (soybean; [9]): 0
Soybean plant response rating (soybean; [10]): 0
Wild oats plant response rating (wild oat; [4]): 0
Plant response rating, Wild oats (wild oat; [5]): 0
Wild oats plant response rating (wild oat; [9]): 0
Wild oats plant response rating (wild oat; [10]): 0
Bedstraw plant response rating (bedstraw; [4]): 0
Plant response rating, Bedstraw (bedstraw; [5]): 0
Bedstraw plant response rating (bedstraw; [9]): 0
Bedstraw plant response rating (bedstraw; [10]): 0
